According to patent US20150336999A1, “PROCESS FOR THE PRODUCTION OF SOPHOROSE STARTING FROM SOPHOROLIPIDS” (IFP ENERGIES NOUVELLES, priority 2012, published 2015):
Values joined by “and” are separate entries in the source; they are usually repeats but may differ in a detail not shown here. Identical values can stand only once.

Experiments:
T. reesei CL847 = test: Fed-batch cellulase production by T. reesei CL847 with sugar mixture containing inducing sugar; specific rate of protein production; format: cell-based, Trichoderma reesei; conditions: for specific protein production rate: fed-batch 166 h, 30° C.
Procedure: After growing cells of T. reesei CL847 (Durand H. et al. (1988a) Classical and molecular genetics applied to Trichoderma reesei for the selection of improved cellulolytic industrial strains. In: FEMS Symposium n° 43: Biochemistry and Genetics of Cellulose Degradation, p. 135-151. Academic Press, London) on glucose in stirred flasks up to the exhaustion of the glucose, cellulase production was carried out using a “fed-batch” process employing a solution the composition of which was as follows: 50 g/L of a mixture of sugars and 15 mL/L of 20% by weight NH3 as described in the publication “A new stoichiometric miniaturization strategy for screening of industrial microbial strains: application to cellulase hyper-producing Trichoderma reesei strains”, Microbial Cell Factories 2012, 11:70.
The mixture of sugars used contained (100−x)% by weight of glucose and x% by weight of inducing sugar:
in the first case (control), the inducing sugar was lactose at a quantity of x=8%
in the second, third and fourth cases, the inducing sugar was sophorose from the hydrolysate obtained in Example 3 which had been supplemented with pure glucose in order to have x=8%, x=0.3% and x=0.03% respectively.
The fed-batch process was carried out for 166 hours with a solution supply flow rate of 0.3 mL/h and at a temperature of 30° C.
Daily samples were taken in order to monitor the concentration of cells and the concentration of proteins. The induction capacity of the mixture of sugars used for the fed-batch process was expressed as the specific rate of protein production (mg of proteins produced per gram of producer cells per hour).

[1] = tested on: cellulolytic Trichoderma reesei system; conditions: known from the prior art (Mandels et al. 1962); cited from earlier work
[2] = inducing sugar x=8% by weight of sugar mixture (rest glucose)

Structure (SMILES)	specific protein production rate (T. reesei CL847; [2])	induction relative to the mixture containing lactose at the same concentration (T. reesei CL847; 8% sophorose versus 8% lactose)	specific protein production rate (T. reesei CL847; inducing sugar x=0.03% by weight of sugar mixture (rest glucose)) [mg/g/h]	specific protein production rate (T. reesei CL847; inducing sugar x=0.3% by weight of sugar mixture (rest glucose)) [mg/g/h]	inducer of the cellulolytic Trichoderma reesei system [1]
OC[C@H]1O[C@@H](O[C@H]2[C@H](O)[C@@H](O)C(O)O[C@@H]2CO)[C@H](O)[C@@H](O)[C@H]1O (stereo partly drawn) [lactose, reference compound]	6.4 mg/g/h and ~6 mg/g/h				
O=C[C@H](O[C@@H]1O[C@H](CO)[C@@H](O)[C@H](O)[C@H]1O)[C@@H](O)[C@H](O)[C@H](O)CO [sophorose, 2-O-β-D-glucopyranosyl-D-glucose]	12 mg/g/h	approximately twice as high	~6	10.5	very good inducer
